Data from patent publication US6114334A, “Piperazine derivatives as therapeutic agents” (Knoll Aktiengesellschaft, priority 1995, dated 2000).
Structures can show the parent of a compound that is named as a salt.

Experiments:
[1] = target: T1, 5-HT1A receptors (Rattus norvegicus, UniProt P19327); experiment: inhibition of [3H]8-OH-DPAT binding to 5-HT1A receptors in vitro; design: species or system rat (male Sprague-Dawley, hippocampal tissue); conditions: rat hippocampus; for Ki: [3H]8-OH-DPAT 2 nM, 25° C., 30 min; for inhibition at 1 µM: 10^-6 M, [3H]8-OH-DPAT, read-out: % displacement at 10^-6 M, 5-HT1A
T1 sequence (P19327 1-422): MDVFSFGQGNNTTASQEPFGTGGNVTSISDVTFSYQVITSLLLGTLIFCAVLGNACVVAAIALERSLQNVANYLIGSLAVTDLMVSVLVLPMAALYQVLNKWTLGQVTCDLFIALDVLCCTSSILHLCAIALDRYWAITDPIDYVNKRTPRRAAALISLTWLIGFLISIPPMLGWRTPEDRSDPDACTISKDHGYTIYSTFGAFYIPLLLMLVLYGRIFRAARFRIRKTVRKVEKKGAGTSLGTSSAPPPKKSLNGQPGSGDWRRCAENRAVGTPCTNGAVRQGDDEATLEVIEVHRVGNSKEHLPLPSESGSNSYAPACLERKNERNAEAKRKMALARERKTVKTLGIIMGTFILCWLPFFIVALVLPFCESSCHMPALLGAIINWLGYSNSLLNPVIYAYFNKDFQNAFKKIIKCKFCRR
Experimental: Hippocampal tissue from the brains of male Sprague-Dawley rats (Charles River; weight range 150-250 g) was homogenised in ice-cold 50 mM Tris-HCl buffer (pH 7.7 when measured at 25° C., 1:40 w/v) and centrifuged at 30,000 g at 4° C. for 10 minutes. The pellet was rehomogenised in the same buffer, incubated at 37° C. for 10 minutes and centrifuged at 30,000 g at 4° C. for 10 minutes. The final pellet was resuspended in 50 mM Tris-HCl buffer (pH 7.7) containing 4 mM CaCl2. 0.1% L-ascorbic acid and 10 μM pargyline hydrochloride (equivalent to 6.25 mg wet weight of tissue/ml) and used immediately in the binding assay. Aliquots (400 μl; equivalent to 2.5 mg wet weight of tissue/tube) of this suspension were added to tubes containing the ligand (50 μl; 2 nM) and distilled water (50 μl; total binding) or 5-HT (50 μl; 10 μM; non-specific binding) or test compound (50 μl; at a single concentration of 10^-6 M or at 10 concentrations ranging from 10^-11 -10^-3 M). The ligand was [^3 H]8-hydroxy-2-(dipropylamino)tetralin ([^3 H]8-OH-DPAT) and the mixture was incubated at 25° C. for 30 minutes before the incubation was terminated by rapid filtration.
The filters were washed with ice-cold Tris-HCl buffer and dried. The filters were punched out into vials, scintillation fluid added and radioactivity determined by liquid scintillation counting. The percentage displacement of specific binding of the tritiated ligand was calculated for the single concentration (10^-6 M) of test compound. Displacement curves were then produced for those compounds which displaced ≥50% of specific binding of the tritiated ligand at 10^-6 M using a range of concentrations of the compound. The concentration which gave 50% inhibition of specific binding (IC50) was obtained from the curve. The inhibition coefficient Ki was then calculated using the formula [formula] in which [ligand] is the concentration of the tritiated ligand used and KD is the equilibrium dissociation constant for the ligand.

[2] = target: T2, α2D-adrenoceptors (Rattus norvegicus, UniProt P22909); experiment: inhibition of tritiated idazoxan binding to α2D-adrenoceptors in vitro; design: species or system rat (male Charles River CD, frontal cortical tissue); conditions: rat frontal cortex; for Ki: [3H]idazoxan 1 nM, 0° C., 75 min; for inhibition at 1 µM: 10^-6 M, [3H]idazoxan, read-out: % displacement at 10^-6 M, α2D
T2 sequence (P22909 1-465): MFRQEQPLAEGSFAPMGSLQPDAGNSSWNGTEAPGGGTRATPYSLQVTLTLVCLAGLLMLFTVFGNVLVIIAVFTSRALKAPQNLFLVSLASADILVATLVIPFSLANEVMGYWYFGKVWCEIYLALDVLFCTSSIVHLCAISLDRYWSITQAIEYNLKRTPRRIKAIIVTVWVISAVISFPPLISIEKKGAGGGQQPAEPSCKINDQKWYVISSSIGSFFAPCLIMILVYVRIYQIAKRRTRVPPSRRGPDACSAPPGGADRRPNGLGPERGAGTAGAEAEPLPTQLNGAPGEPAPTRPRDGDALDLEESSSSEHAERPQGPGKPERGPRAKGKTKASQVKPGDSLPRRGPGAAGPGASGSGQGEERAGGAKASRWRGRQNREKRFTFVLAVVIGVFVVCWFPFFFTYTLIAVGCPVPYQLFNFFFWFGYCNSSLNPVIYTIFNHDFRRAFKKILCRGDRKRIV

[3] = target: α1-adrenoceptors; experiment: inhibition of 7-methoxy-[3H]prazosin binding to α1-adrenoceptors in vitro; design: species or system rat (male Charles River CD, whole cortical tissue); conditions: rat whole cortex, 30 min; for Ki: 7-methoxy-[3H]prazosin 0.1 nM, 30° C.; for % displacement at 10^-6 M, α1: 7-methoxy-[3H]prazosin, 1 µM
Experimental: Whole cortical tissue from the brains of male Charles River CD rats weighing between 150-250 g were homogenised in ice-cold 50 mM Tris-HCl, pH 7.6 (at 25° C.; 1:40 w/v) and centrifuged at 1000 g at 4° C. for 10 minutes. The supernatant was centrifuged at 30,000 g at 4° C. for 10 minutes. The pellet was rehomogenised in 50 mM Tris-HCl, pH 7.6 (1:40 w/v) and centrifuged at 30,000 g at 4° C. for 10 minutes. The final pellet was resuspended in 50 mM Tris-HCl, pH 7.6 (equivalent to 12.5 mg wet weight of tissue/ml) and used immediately in the binding assay. Aliquots (400 μl; equivalent to 5 mg wet weight of tissue/tube) of this suspension were added to tubes containing the ligand (50 μl; 0.1 nM) and distilled water (50 μl; total binding) or phentolamine (50 μl; 5 μM; non-specific binding) or test compound (50 μl; at a single concentration of 10^-6 M or at 10 concentrations ranging from 10^-11 -10^-3 M). The ligand was 7-methoxy-[^3 H]prazosin and the mixture was incubated at 30° C. for 30 minutes before the incubation was terminated by rapid filtration. The filters were washed with ice-cold Tris-HCl buffer and dried. The filters were punched out into vials, scintillation fluid added and radioactivity determined by liquid scintillation counting. The percentage displacement of specific binding of the tritiated ligand was calculated for the single concentration (10^-6 M) of test compound. […] The concentration which gave 50% inhibition of specific binding (IC50) was obtained from the curve. The inhibition coefficient Ki was then calculated using the formula [formula] in which [ligand] is the concentration of the tritiated ligand used and KD is the equilibrium dissociation constant for the ligand.

[4] = target: D2 dopamine receptors (Rattus norvegicus, UniProt P61169); experiment: inhibition of tritiated (S)-sulpiride binding to D2 dopamine receptors in vitro; design: species or system rat (male Charles River CD, striatal tissue); conditions: rat striatum; for Ki: tritiated (S)-sulpiride 1 nM, 4° C., 40 min
D2 dopamine receptors, sequence (P61169 whole entry): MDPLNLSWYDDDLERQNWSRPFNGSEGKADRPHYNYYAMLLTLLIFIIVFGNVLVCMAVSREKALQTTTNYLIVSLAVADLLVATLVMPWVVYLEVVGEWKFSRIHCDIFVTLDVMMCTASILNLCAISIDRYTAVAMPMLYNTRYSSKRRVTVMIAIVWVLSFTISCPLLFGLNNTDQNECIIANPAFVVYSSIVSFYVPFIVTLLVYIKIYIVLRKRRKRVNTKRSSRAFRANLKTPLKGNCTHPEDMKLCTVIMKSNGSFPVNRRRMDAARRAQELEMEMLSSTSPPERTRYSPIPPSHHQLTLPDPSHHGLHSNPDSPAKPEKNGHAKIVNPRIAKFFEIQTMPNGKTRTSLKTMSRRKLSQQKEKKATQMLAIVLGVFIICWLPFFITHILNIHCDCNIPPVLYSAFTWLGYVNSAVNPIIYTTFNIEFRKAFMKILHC

Row | Ki [1] [nM] | Ki [2] [nM] | Ki [3] [nM] | Ki [4] [nM] | inhibition at 1 µM [1] [%] | inhibition at 1 µM [2] [%] | % displacement at 10^-6 M, α1 [3] [%] | inhibition at 1 µM ([4]; 10^-6 M, tritiated (S)-sulpiride, read-out: % displacement at 10^-6 M, D2) [%] | SMILES
1 | – | – | – | 93 | 90 | 84 | 98 | – | C=CCn1c(-c2cccnc2)nn(CCCCN2CCN(c3cccc(C)c3C)CC2)c1=O [Example 64, 4-Allyl-2-{4-[4-(2,3-dimethylphenyl)piperazin-1-yl]butyl}-5-(3-pyridyl)-1,2,4-triazol-3(2H,4H)-one 1.5 maleate]
2 | – | – | > 500 | > 500 | 52 | 52 | – | – | C=CCn1c(-c2cccnc2)nn(CN2CCN(c3cccc(C)c3C)CC2)c1=S [Example 61, 4-Allyl-2-[4-(2,3-dimethylphenyl)piperazin-1-ylmethyl]-5-(3-pyridyl)-1,2,4-triazole-3(2H,4H)-thione]
3 | 138 | 82 | 159 | 155 | – | – | – | – | C=CCn1c(-c2cccs2)nn(CN2CCN(c3ccccc3OC)CC2)c1=S [Example 60, 4-Allyl-2-[4-(2-methoxyphenyl)piperazin-1-ylmethyl]-5-(2-thienyl)-1,2,4-triazole-3(2H,4H)-thione]
4 | > 500 | > 500 | – | > 500 | – | – | 91 | – | C=CCn1c(-c2cccnc2)nn(CCCN2CCN(c3ccccc3OC)CC2)c1=O.Cl.Cl.Cl [Example 72, 4-Allyl-2-{3-[4-(2-methoxyphenyl)piperazin-1-yl]propyl}-5-(3-pyridyl)-1,2,4-triazol-3(2H,4H)-one trihydrochloride]
5 | – | > 500 | > 500 | 337 | 67 | – | – | – | Nc1c(CN2CCN(c3cccc(C(F)(F)F)c3)CC2)c(C2CC2)nn1-c1ccccc1 [Example 15, 5-Amino-3-cyclopropyl-1-phenyl-4-{4-[3-(trifluoromethyl)phenyl]piperazin-1-ylmethyl}pyrazole]
6 | 101 | 115 | > 500 | – | – | – | – | 72 | C=CCN1C(=O)C(C)(CN2CCN(c3ccccc3OC)CC2)N=C1c1cccnc1 (stereo not drawn) [Example 39, 1-allyl-4-[4-(2-methoxyphenyl)piperazin-1-ylmethyl]-4-methyl-2-(3-pyridyl)-2-imidazolin-5-one]
7 | > 500 | – | > 500 | > 500 | – | 95 | – | – | C=CCn1c(-c2cccnc2)nn(CN2CCN(c3ncccn3)CC2)c1=S [Example 57, 4-Allyl-5-(3-pyridyl)-2-[4-(pyrimidin-2-yl)piperazin-1-ylmethyl]-1,2,4-triazole-3(2H,4H)-thione]

Further lines, the compound ahead of its results:

Row | SMILES | Ki [1] [nM] | Ki [2] [nM] | Ki [3] [nM] | Ki [4] [nM] | inhibition at 1 µM [1] [%] | inhibition at 1 µM [2] [%] | % displacement at 10^-6 M, α1 [3] [%] | inhibition at 1 µM ([4]; 10^-6 M, tritiated (S)-sulpiride, read-out: % displacement at 10^-6 M, D2) [%]
8 | C=CCn1c(-c2cccnc2)nn(CN2CCN(c3cccc4c3OCCO4)CC2)c1=S [Example 45, 4-allyl-2-[4-(1,4-benzodioxan-5-yl)piperazin-1-ylmethyl]-5-(3-pyridyl)-1,2,4-triazole-3(2H,4H)-thione] | 31 | 225 | > 500 | 322 | – | – | – | –
9 | COc1ccccc1N1CCN(Cc2c(N)n(C)n(-c3ccccc3)c2=O)CC1 [Example 1, 3-amino-4-[4-(2-methoxyphenyl)piperazin-1-ylmethyl]-2-methyl-1-phenyl-3-pyrazolin-5-one] | 169 | 130 | 23 | 192 | – | – | – | –
10 | CCCn1c(-c2ccncc2)nn(CN2CCN(c3ccccc3OC)CC2)c1=S [Example 53, 2-[4-(2-Methoxyphenyl)piperazin-1-ylmethyl]-4-propyl-5-(4-pyridyl)-1,2,4-triazole-3(2H,4H)-thione] | 117 | 150 | > 500 | 274 | – | – | – | –
11 | C=CCn1c(-c2cccnc2)nn(CN2CCN(c3ccccc3OC)CC2)c1=S [Example 47, 4-Allyl-2-[4-(2-methoxyphenyl)piperazin-1-ylmethyl]-5-(3-pyridyl)-1,2,4-triazole-3(2H,4H)-thione] | 152 | 178 | > 500 | 262 | – | – | – | –
12 | C=CCn1c(C)nn(CN2CCN(c3ccccc3OC)CC2)c1=S [Example 59, 4-Allyl-2-[4-(2-methoxyphenyl)piperazin-1-ylmethyl]-5-methyl-1,2,4-triazole-3(2H,4H)-thione] | 119 | 255 | 497 | 306 | – | – | – | –
